Test results published in patent US20250205265A1, “ASPERULOSIDE AS AN AGENT FOR IMPROVING VASCULAR AND METABOLIC FUNCTION IN OBESITY: ROLE OF NRF2 ACTIVATION” (The Chinese University of Hong Kong, priority 2023, published 2025).
Entries after “also recorded” stand apart in the source; their conditions may differ. Where two headings read alike, the source gives them in different places.

Columns and labels:
HepG2 cells [1] = test: DHE staining of palmitic acid-treated HepG2 cells; format: cell-based; settings: Nrf2-inhibited HepG2 cells
Description: (§1) After induction of obesity in C57BL/6 male mice fed with the high-fat diet for twelve weeks, they were treated daily with ASP (50 mg/kg) via oral gavage for seven weeks in vivo study. C57BL/6 mice aortae were used for ex vivo studies. Endothelial cells, HepG2 and primary adipocytes were used for in vitro studies. Vascular function was determined by wire myograph. H&E staining was employed for histological examination. Oil Red O staining was used to determine lipid droplets in tissues and cells. DHE and MitoSOX staining were used to detect ROS levels. QPCR, aortic en-face immunofluorescence staining, and Western blotting were used to analyze mRNA and protein expressions. ARE binding activity was determined by Dual luciferase reporter assay. Small interfering (si)RNA of Nrf2 and HO-1, inhibitors of Nrf2 (ML385, Cat. No.: HY-100523) and HO-1 (OB-24, HY-118487) were used to elucidate the mechanistic pathway of ASP's action.

HepG2 cells [2] = test: ATP production in PA-treated HepG2 cells; format: cell-based
Description: as §1

[3] = test system: Cpt1α, Cpt1β, mitochondrial complex, Pgc1α; test: Real-time PCR of mitochondrial genes in obese mice livers; format: in vivo
Description: as §1

Nrf2 [4] = test: Real-time PCR of Nrf2 in obese mice aortas; format: in vivo
Description: (§2) After induction of obesity in C57BL/6 male mice fed with high fat diet for twelve weeks, they were treated daily with ASP (50 mg/kg) via oral gavage for seven weeks in vivo study. C57BL/6 mice aortae were used for ex vivo study and endothelial cells were used for in vitro study. Vascular function was determined by wire myograph. DHE and MitoSOX staining were used to detect ROS levels. QPCR, aortic en-face immunofluorescence staining, and Western blotting were used to analyze mRNA and protein expressions. Small interfering (si)RNA of Nrf2 and HO-1, inhibitors of Nrf2 (ML385, Cat. No.: HY-100523) and HO-1 (OB-24, HY-118487) were used to elucidate the mechanistic pathway of ASP's action.
as §1, with “QPCR, aortic en-face immunofluorescence staining, and Western blotting were used to analyze mRNA and protein expressions.” left out, “Small interfering (si)RNA of Nrf2 and HO-1, inhibitors of Nrf2 (ML385, Cat. No.: HY-100523) and HO-1 (OB-24, HY-118487) were used to elucidate the mechanistic pathway of ASP's action.” left out

[5] = test system: adipose tissues of obese mice; test: Real-time PCR of adipose tissues of obese mice; format: in vivo
Description: as §1

C57BL/6 mice aortae = test: Ex vivo wire myograph, IL-1β-impaired EDRs in mouse aortas; settings: for EDRs: IL-1β
Description: as §2, §1

[6] = test system: Nrf2/antioxidant responsive element (ARE); test: ARE binding activity, luciferase reporter assay in endothelial cells; format: cell-based; settings: for endothelial Nrf2/ARE binding, higher than the binding to impaired endothelial cells: worded as embodiment, cf. FIG. 3D
Description: as §1

Nrf2 [7] = test: Nrf2 nuclear translocation in primary adipocytes (immunofluorescence); format: cell-based, mice; settings: 40 μmol/L ASP for 24 hours
Description: (§3) Primary adipocytes were treated with 40 μmol/L ASP (FIG. 22A) or different doses of ASP (FIG. 22B) for 24 hours. […] Scale bar, 50 μm (FIG. 22B). Data represent means±SEM of 4 experiments. P values were determined using One-way ANOVA. *p<0.05.
as §1

primary adipocytes = test: Real-time PCR in primary adipocytes; format: cell-based, mice
Description: Primary adipocytes were treated with ASP overnight. […] Data represent means±SEM of 4 mice. P values were determined using One-way ANOVA. *p<0.05.
as §3, §1

Nrf2 [8] = test: Nrf2 nuclear translocation in palmitic acid-treated HepG2 cells; format: cell-based
Description: as §1

VCAM-1 = test: Real-time PCR of VCAM-1 in aortas of obese mice; format: in vivo
Description: as §2
as §1, with “QPCR, aortic en-face immunofluorescence staining, and Western blotting were used to analyze mRNA and protein expressions.” left out, “Small interfering (si)RNA of Nrf2 and HO-1, inhibitors of Nrf2 (ML385, Cat. No.: HY-100523) and HO-1 (OB-24, HY-118487) were used to elucidate the mechanistic pathway of ASP's action.” left out

[9] = test system: lipid droplets in obese mice livers; test: H&E and Oil Red O staining of obese mice livers; format: in vivo; settings: ASP 50 mg/kg oral gavage daily for seven weeks
Description: as §1

[10] = test system: high-fat diet (HFD)-fed mice; test: Vascular function by wire myograph, aortas of obese mice; format: in vivo; settings: ASP 50 mg/kg oral gavage daily for seven weeks
Description: as §2
as §1, with “QPCR, aortic en-face immunofluorescence staining, and Western blotting were used to analyze mRNA and protein expressions.” left out, “Small interfering (si)RNA of Nrf2 and HO-1, inhibitors of Nrf2 (ML385, Cat. No.: HY-100523) and HO-1 (OB-24, HY-118487) were used to elucidate the mechanistic pathway of ASP's action.” left out

Npra, Hsl, Fas, Acc2 = test: Real-time PCR of lipid metabolism genes in obese mice livers; format: in vivo
Description: as §1

ROS [11] = test: Ex vivo DHE staining of ROS in IL-1β-treated aortas; set-up: species or system mice
Description: as §2, §1

Nrf2/ARE = test: Dual-luciferase assay of ARE binding in PA-treated HepG2 cells; format: cell-based
Description: as §1

[12] = test system: HO-1, SIRT1, SIRT6, and SOD2; test: Real-time PCR of Nrf2 downstream genes in PA-treated HepG2 cells; format: cell-based
Description: as §1

HepG2 cells [13] = test: Oil Red O staining of PA-treated HepG2 cells; format: cell-based; settings: Nrf2-inhibited HepG2 cells
Description: as §1

endothelial cells = test: ROS level in endothelial cells; format: cell-based
Description: as §2
as §1, with “QPCR, aortic en-face immunofluorescence staining, and Western blotting were used to analyze mRNA and protein expressions.” left out, “Small interfering (si)RNA of Nrf2 and HO-1, inhibitors of Nrf2 (ML385, Cat. No.: HY-100523) and HO-1 (OB-24, HY-118487) were used to elucidate the mechanistic pathway of ASP's action.” left out

[14] = test system: perirenal adipose tissues; test: Weight and sizes of perirenal adipose tissues in obese mice; format: in vivo
Description: as §1

ROS [15] = test: DHE staining of ROS in obese mice aortic sections; format: in vivo; settings: ASP 50 mg/kg oral gavage daily for seven weeks
Description: as §2
as §1, with “QPCR, aortic en-face immunofluorescence staining, and Western blotting were used to analyze mRNA and protein expressions.” left out, “Small interfering (si)RNA of Nrf2 and HO-1, inhibitors of Nrf2 (ML385, Cat. No.: HY-100523) and HO-1 (OB-24, HY-118487) were used to elucidate the mechanistic pathway of ASP's action.” left out

Nrf2 protein = molecular target: T1, Nrf2 protein (Mus musculus, UniProt Q60795); test: CETSA in endothelial cells; format: binding; settings: ASP 40 μmol/L
T1 construct: endogenous in cells
Description: The Nrf2 protein expression was normalized to total protein. P values were determined using One-way ANOVA. *p<0.05. Data represent means±SEM of 3 experiments.

[16] = obese mice aortae, ASP 50 mg/kg oral gavage daily for seven weeks
[17] = perirenal adipose tissues in obese mice
[18] = visceral adipose tissues in obese mice
[19] = 250 μmol/L PA-treated HepG2 cells for 16 hours

T1 sequence (Q60795 whole entry): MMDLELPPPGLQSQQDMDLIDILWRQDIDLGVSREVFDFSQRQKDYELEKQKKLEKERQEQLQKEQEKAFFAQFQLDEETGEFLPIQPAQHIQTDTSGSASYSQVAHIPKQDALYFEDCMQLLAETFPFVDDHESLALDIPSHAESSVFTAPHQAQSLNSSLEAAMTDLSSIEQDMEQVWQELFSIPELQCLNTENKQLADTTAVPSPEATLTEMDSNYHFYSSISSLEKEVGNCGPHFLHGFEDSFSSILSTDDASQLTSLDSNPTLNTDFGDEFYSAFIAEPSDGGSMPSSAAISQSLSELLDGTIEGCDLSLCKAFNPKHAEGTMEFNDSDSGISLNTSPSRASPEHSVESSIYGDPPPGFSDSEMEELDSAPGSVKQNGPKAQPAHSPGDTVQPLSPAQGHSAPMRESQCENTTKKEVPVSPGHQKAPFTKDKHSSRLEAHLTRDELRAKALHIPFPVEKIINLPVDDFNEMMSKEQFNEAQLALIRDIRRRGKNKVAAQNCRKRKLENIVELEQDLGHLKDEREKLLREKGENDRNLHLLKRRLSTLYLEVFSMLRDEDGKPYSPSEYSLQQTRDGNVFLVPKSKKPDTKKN

Asperuloside
palmitic acid-induced oxidative stress (DHE staining) (HepG2 cells [1]): fails to attenuate palmitic acid-induced oxidative stress
production of ATP (HepG2 cells [2]): restores the decreased production of ATP
production of ATP (HepG2 cells [2]; inhibition of Nrf2): inhibition of Nrf2 eliminates the rescue effect of ASP
mRNA expressions of Cpt1α, Cpt1β, mitochondrial complex, and Pgc1α [3]: reverses these impairments
increase of Nrf2 expression (Nrf2 [4]; [16]): about 1.5 fold
Nrf2 mRNA expression level (Nrf2 [4]; obese mice aortas, real-time PCR): increases mRNA expression level of Nrf2
Cd36 upregulation ([5]; perirenal adipose tissues): inhibited Cd36 upregulation
Acox1 expression [5, 17]: increased
Nprc expression [5, 17]: downregulates Nprc expression
mRNA expression levels of Srebp1 and Acc2 [5, 17]: decreases mRNA expression levels of Srebp1 (FIG. 15A) and Acc2
expression levels of Il-6 and Il-1β ([5]; perirenal adipose tissues of obese mice): reverses enhanced expression levels of Il-6 (FIG. 16A) and Il-1β
Cd36 upregulation ([5]; subcutaneous adipose tissues): inhibited Cd36 upregulation
Hsl expression ([5]; subcutaneous adipose tissues in obese mice): upregulates Hsl expression
expression of F4/80 ([5]; subcutaneous adipose tissues of obese mice): reverses the elevated expression of F4/80
Nprc expression [5, 18]: decreased Nprc expression
Tnfα expression [5, 18]: decreases Tnfα expression
upregulation of Cd11c, Cd11b, and F4/80 ([5]; visceral adipose tissues of obese mice): suppresses the upregulation of Cd11c (FIG. 20A), Cd11b (FIG. 20B), and F4/80
EDRs (C57BL/6 mice aortae; ML385-treated aortas): fails to reverse impairment
EDRs (C57BL/6 mice aortae; endothelial-cell specific Nrf2 knockdown murine aortas): fails to reverse the impairment
acetylcholine-induced EDRs (C57BL/6 mice aortae; IL-1β-treated aortas, ex vivo): prevents IL-1-induced impairment in acetylcholine-induced EDRs; also recorded: prevents IL-1β-impaired EDRs; also recorded: rescued IL-1β-impairs EDRs
acetylcholine-induced EDRs (C57BL/6 mice aortae; IL-1β-treated, HO-1-inhibited (OB-24) aortas): fails to rescue the impairment; also recorded: failed to prevent endothelial dysfunction in HO-1 inhibited aortae
endothelial Nrf2/ARE binding, higher than the binding to impaired endothelial cells ([6]; 10 μm ASP): about 50%
endothelial Nrf2/ARE binding, higher than the binding to impaired endothelial cells ([6]; 20 μm ASP): ~60%
endothelial Nrf2/ARE binding, higher than the binding to impaired endothelial cells ([6]; 40 μm ASP): ~70%
ARE binding activity ([6]; luciferase reporter assay): increased ARE binding activity
Nrf2 nuclear translocation (Nrf2 [7]): stimulates Nrf2 nuclear translocation in adipocytes
mRNA expression levels of Nprc and Cd36 (primary adipocytes; primary adipocytes treated with ASP overnight): dose-dependently decreases mRNA expression levels of Nprc (FIG. 21A) and Cd36
mRNA expression of Nrf2 (primary adipocytes; primary adipocytes, different doses of ASP for 24 hours): dose-dependently increases mRNA expression of Nrf2
increase of Nrf2 mRNA expression (primary adipocytes; primary adipocytes, worded as embodiment, cf. FIG. 22B): at least 1.2 fold
Nrf2 nuclear translocation (immunofluorescence) (Nrf2 [8]): stimulates Nrf2 nuclear translocation in palmitic acid-treated HepG2 cells
VCAM-1 mRNA expression (VCAM-1; aortas of obese mice, real-time PCR): decreases elevated expression of VCAM-1 and ICAM-1 mRNA
reduction of VCAM-1 expression (VCAM-1; [16]): about 2 fold
accumulated lipid droplets (H&E, Oil Red O) [9]: attenuates obesity-induced accumulated lipid droplets
acetylcholine-induced endothelium-dependent relaxations (EDRs) [10]: prevents HFD-induced impairment of EDRs; also recorded: significantly reversed the impairments of endothelium-dependent relaxations; also recorded: significantly improved endothelial-dependent relaxations
endothelium-independent relaxations in response to sodium nitroprusside (SNP) [10]: remain similar among different groups
mRNA expression levels of fatty acid synthesis-related genes, including Fas and Acc2 (Npra, Hsl, Fas, Acc2): downregulated
mRNA expression levels of lipolysis-related genes, Npra and Hsl (Npra, Hsl, Fas, Acc2): increases the mRNA expression levels of lipolysis-related genes, Npra and Hsl
ROS generation (ROS [11]; IL-1β, HO-1-inhibited aortas): fails to rescue the impairment (FIG. 2C) or decrease ROS generation
IL-1β-induced ROS overproduction (ROS [11]; ML385-treated aortas): fails to reverse impairment (FIG. 4E) or suppress IL-1β-induced ROS overproduction
IL-1β-induced ROS overexpression (DHE staining) (ROS [11]; endothelial Nrf2 knocked down): fails to suppress IL-1β-induced ROS overexpression
binding activity of ARE (Nrf2/ARE; [19]): dose-dependently increases the binding activity of ARE
increase of Nrf2/ARE binding (Nrf2/ARE; palmitic acid-impaired HepG2 cells, worded as embodiment, cf. FIG. 13E): about 2 fold
mRNA expression of HO-1, SIRT1, SIRT6, and SOD2 [12, 19]: dose-dependently increases mRNA expression of HO-1, SIRT1, SIRT6, and SOD2
increase of HO-1 mRNA expression ([12]; palmitic acid-impaired HepG2 cells, cf. FIG. 13F): at least 2 fold
PA-induced lipid accumulation (Oil Red O) (HepG2 cells [13]): fails to alleviate PA-induced lipid accumulation
ROS level (endothelial cells; HO-1-silencing cells): fails to decrease ROS level
oxidative stress (endothelial cells; endothelial cells): suppresses oxidative stress
ratio of perirenal adipose tissues to body weight ([14]; obese mice): decreased
sizes of adipocytes (H&E staining) ([14]; obese mice): remarkably reduces the sizes of adipocytes
decrease of perirenal adipose tissues in weight and sizes, average ([14]; worded as embodiment, cf. FIGS. 14A-14B): about 35%
ROS generation / oxidative stress (DHE staining) (ROS [15]): suppresses elevated ROS generation; also recorded: suppressed oxidative stress
melting behavior of Nrf2 protein (CETSA) (Nrf2 protein; 0.3 ng/mL IL-1β-treated endothelial cells): changes the melting behavior of Nrf2 protein
melting behavior of Nrf2 protein (CETSA) (Nrf2 protein; endothelial cells under basal conditions): changes the melting behavior of Nrf2 protein
